Values joined by “and” are separate entries in the source; they are usually repeats but may differ in a detail not shown here. Equal entries are not always repeated.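 Tested at 5 concentrations; 48 h exposure; 96-well plates; endpoints linearly interpolated, else capped at highest concentration. GI50 marks 50% less growth. TGI denotes the concentration required for complete inhibition of growth.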
test system: SF-268 CNS; test: DTP human tumour cell line panel, 48 h

Row | Structure (SMILES) | GI50 | TGI
1 | O=C1/C(=C/c2ccc(Br)cc2)COc2ccc(O)c(O)c21 | 1260 nM | 3.4 µM
2 | N#CC(N)(C(=O)CCC(=O)Nc1cccc(Cl)c1)c1ccc(Cl)cc1 (centres undefined) | – | > 100 µM
3 | O=C(Nc1nc2ccc(C(F)(F)F)cc2s1)c1cc(Cl)ccc1O | 497 nM | > 100 µM
4 | COc1cnc2c(c1)C(=O)c1c-2n(CCCNC(C)C)c(=O)c2cc(Cl)ccc12 | 148 nM | 1.94 µM
5 | CN1CCN(CCOc2ccc(-c3cnc4c(-c5ccccc5F)cnn4c3)cc2)CC1 | 2040 nM | 4.73 µM
6 | COc1cc(N(CCC#N)CCC#N)ccc1/C(N=Nc1ccc([N+](=O)[O-])cc1)=N/NC(=O)c1cc(Br)ccc1O | 19.3 µg/mL | 78.7 µg/mL
7 | C=C1C(=O)OC2CCN3CC=C(COC(=O)C(C)(O)C4(CO4)C1C)C23 (centres undefined) | – | > 100 µM

test system: SK-MEL-28 melanoma; test: DTP human tumour cell line panel, 48 h

Row | Structure (SMILES) | GI50 | TGI
8 | OC[C@H]1C[C@](O)(c2ccc(Cl)cc2)[C@@H](c2ccc(Cl)cc2)O1 | 28900 nM | 92.3 µM
9 | CC(C)N(C(=O)C12C3C4C5(C#N)C3C1(C#N)C5C42I)C(C)C (centres undefined) | – | > 100 µM
10 | C=COCCCOc1ccccc1 | – | > 100 µM
11 | COc1cc2nc(-c3ccc(Cl)cc3)cc(OCCCN3CCCCC3)c2cc1OC | 1450 nM | 3.07 µM
12 | COc1ccc2c3c([nH]c2c1[N+](=O)[O-])C(C)=NCC3 | – | > 100 µM
13 | C=C(c1nc2ccc(Cl)cc2[nH]c1=O)C(O)c1ccc(C(O)C(=O)c2nc3ccc(Cl)cc3[nH]c2=O)cc1 (centres undefined) | – | > 100 µM
14 | O=c1c2sc(=S)n(-c3ccc(F)cc3)c2ncn1Cc1ccc(F)cc1F | > 100000 nM | > 100 µM
15 | CC(C)(C)CC(C)(C)c1cc2c(O)c(c1)Cc1cc(C(C)(C)CC(C)(C)C)cc(c1O)Cc1cc(C(C)(C)CC(C)(C)C)cc(c1O)Cc1cc(C(C)(C)CC(C)(C)C)cc(c1O)C2 | – | > 100 µM
16 | C=CCCCCC/C=C\[C@H](O)C#CC#C/C=C/CO | > 100000 nM | > 100 µM
17 | COc1cc(C#CC(=O)OC/C=C/c2ccc3c(c2)OCO3)cc(OC)c1OC | – | > 100 µM
18 | Cc1cc([N+](=O)[O-])ccc1Nc1cccc(Cl)c1C | – | 32.1 µM
19 | O/N=C/C1C(OCc2ccccc2)C(OCc2ccccc2)C(OCc2ccccc2)CN1Cc1ccccc1 (centres undefined) | – | 44.1 µM and > 100 µM
20 | O=C1NC(=O)C(c2cnc3ccccn23)=C1c1cn2c3c(cc(F)cc13)CN(C(=O)N1CCCCC1)CC2 | 19500 nM | 45 µM
21 | Clc1nc2ccccc2nc1CI | 9310 nM | 23 µM
22 | [Cl][Hg][c]1cc(Br)cc(Br)c1 | 1570 nM | 2.97 µM
23 | CC(C)c1ccc2c(c1)CC[C@@H]1[C@@](C)(C(=O)O)CCC[C@]21C | 5800 nM | 22.3 µM

Row | Structure (SMILES) | GI50 | TGI
24 | CCN(CC)CCOc1ccc(-c2nc3cc(Cl)ccc3s2)cc1 | 1990 nM | 3.94 µM
25 | C=C1C(=O)O[C@@H]2C[C@@H]1CC/C(C)=C/CC/C(C)=C/CC[C@@]2(C)O | 22200 nM | 49.8 µM
26 | [N-]=[N+]=NC12CC3C4CC5CC3C(C1)C(C5)C4C2 | – | > 100 µM
27 | O=C1c2cccc(NCCCNCCO)c2C(=O)c2cccc(NCCCNCCO)c21 | – | 3.99 µM and 3.84 µM
28 | Cc1cc(CC(O)c2ccc(Cl)c(Cl)c2)nc(=O)[nH]1 (centres undefined) | – | > 100 µM
29 | CC1=NNC(=O)C2CCC(=O)N12 (centres undefined) | – | > 100 µM
30 | Cn1c2c(c3ccccc31)C1CCCCCCC1C1C(=O)OC(=O)C21 (centres undefined) | – | > 100 µM
31 | Cc1ccc(S(=O)(=O)N(CC(=O)O)c2ccccc2)cc1 | – | > 100 µM
32 | COc1ccc(/C=C(/C(=O)N2CCN(c3ccccc3)CC2)c2cc(OC)c(OC)c(OC)c2)cc1O | 671 nM | > 100 µM
33 | O=C1/C(=C/c2ccc(Br)cc2)COc2ccc(O)c(O)c21 | 1550 nM | 3.25 µM
34 | N#CC(N)(C(=O)CCC(=O)Nc1cccc(Cl)c1)c1ccc(Cl)cc1 (centres undefined) | – | > 100 µM
35 | O=C(Nc1nc2ccc(C(F)(F)F)cc2s1)c1cc(Cl)ccc1O | 425 nM | 18 µM
36 | CN1CCN(CCOc2ccc(-c3cnc4c(-c5ccccc5F)cnn4c3)cc2)CC1 | 1700 nM | 3.07 µM
37 | CN(C)N=Nc1ccc(NC=O)cc1 | – | > 100 µM
38 | COc1cc(N(CCC#N)CCC#N)ccc1/C(N=Nc1ccc([N+](=O)[O-])cc1)=N/NC(=O)c1cc(Br)ccc1O | 80.6 µg/mL | > 150 µg/mL
39 | C=C1C(=O)OC2CCN3CC=C(COC(=O)C(C)(O)C4(CO4)C1C)C23 (centres undefined) | – | > 100 µM
